From patent US11021687B2, “Production of differentiated enteroendocrine cells and insulin producing cells” (Massachusetts Institute of Technology, priority 2016, dated 2021)

Experiments:
[1] = test system: intestinal stem cells; test: ChgA immunostaining of EEC differentiation from intestinal stem cells; format: cell-based, mouse; details: organoid culture (ENR) with Notch inhibitor DAPT (ENRD)
Method: “ChgA Immunostaining Assay” as used herein is an assay used to determine the fraction of cells in a cell population that express ChgA by an immunostaining method. In an example of a ChgA immunostaining assay, a cell culture medium in which a cell population has been treated is removed, and the sample is washed with PBS. Organoids or cell colonies cultured in Matrigel are fixed directly by adding 4% PFA and incubating for 20 mins at room temperature. The Matrigel is then mechanically disrupted, and the cells are transferred to BSA-coated Eppendorf tubes. Samples are washed with PBS, permeabilized with 0.25% Triton X-100 for 30 minutes, and stained with primary antibody against Chromogranin A (e.g. anti-chromogranin A, sc-13090, Santa Cruz) and appropriate secondary antibodies (e.g. Alexa Fluor conjugated secondary antibodies, such as Alexa Fluor 594 conjugated Donkey anti-Rabbit antibody, A-21207; Life Technologies). Images are acquired by confocal microscopy.
Differentiated cell colonies were collected by gently pipetting into a 1.5 ml protein Lobind Eppendorf tube. Cell culture medium was removed, and samples were washed with PBS. Organoids or cell colonies cultured in Matrigel were fixed by directly adding 4% PFA and incubating for 10-30 min at room temperature. Matrigel was then mechanically disrupted, and cells were transferred into BSA-coated Eppendorf tubes. […]

[2] = test system: gastrointestinal stem cells; test: Insulin / Nkx6.1 mRNA expression (qPCR), 3-stage conversion to insulin producing cells; format: cell-based, mouse; details: dose response
Text: “mRNA Insulin Expression Assay” refers to an assay used to determine the relative insulin mRNA expression level of a cell population. For example, the assay can determine the insulin mRNA level expressed in a cell population treated to increase the expression of insulin in the cells, as compared to an untreated population of cells. In an exemplary mRNA Insulin Expression Assay, the cells were collected and the RNA is extracted from the cells using an RNA extraction kit (such as RNeasy Mini kit, Qiagen). The insulin expression level is then assessed by Quantitative real-time PCR using a one-step qPCR kit (such as QuantiTech Probe PCR kit, Qiagen) and Ins1 or Ins2 primers and probes (such as the commercially available TaqMan probe for mouse Ins1 and Ins2, Life Technologies). The relative insulin mRNA expression can be determined relative to a baseline or other marker, such as Hprt mRNA expression level or other baseline marker.
(§1) Organoids or differentiated cells were harvested and RNA was extracted using RNeasy Micro Kit (Qiagen) according to the manufacturer's instruction. Quantitative real-time PCR was performed with QuantiTect Probe PCR kit (Qiagen) using commercially available primers and TaqMan probes (Life Technologies).
Based on the protocol to convert gastrointestinal stem cells into insulin producing cells, a 3-stage process was developed, specifically, Day 0-1 as Stage 1, Day 1-3 as Stage 2, Day 3-5 as Stage 3. After Stage 3, the cells turn on significant level of Insulin expression as indicated by Ins-EGFP expression and qPCR for Insulin mRNA expression. Optionally, the cells can be further cultured for 1-2 weeks, as Stage 4. For each stage, a set of specific combination of small molecules (and/or growth factors) were added. The objective was to optimize the reprogramming protocol to increase insulin expression, specifically Insulin mRNA expression for each stage, by screening and testing new small molecules (or growth factors).

[3] = test system: differentiated cell colonies; details: continuing culture of Islet-like Insulin expression cell colonies
[4] = test system: intestinal stem cells; test: Ngn3 mRNA expression during EEC differentiation; format: cell-based, mouse; details: 2 days, added after removal of R-spondin1
Method: “Ngn3 Assay” as used herein is an assay used to determine the extent of expression of Ngn3 in cells, such as cells subjected to a differentiation protocol. In an exemplary Ngn3 Assay, RNA is isolated from cells that have been cultured according to a differentiation protocol, and quantitative real-time PCR is performed using commercially available primers and probes (such as Taqman probes) to determine an extent of Ngn3 expression in the cells.
as §1
There has been prior speculation that Ngn3 positive secretory progenitors differentiate to EECs (Genes Dev. 2002).

[5] = test system: intestinal stem cells; test: mRNA expression (qPCR) of ChgA and other lineage markers in differentiated intestinal stem cells; format: cell-based, mouse
Text: “mRNA ChgA Expression Assay” refers to an assay used to determine the relative ChgA mRNA expression level in a cell population. For example, the assay can determine ChgA mRNA expression level of a differentiated cell population following treatment with agents being tested, as compared to an untested population of post-natal stem cells. In an example of an mRNA ChgA Expression Assay, the cells were collected and the RNA is extracted from the cells using an RNA extraction kit (such as RNeasy Mini kit, Qiagen). The ChgA expression level is then assessed by Quantitative real-time PCR using a one-step qPCR kit (such as QuantiTech Probe PCR kit, Qiagen) and ChgA primers and probes (such as commercially available Taqman probe for mouse ChgA, Life Technologies).
as §1
Cells were then cultured with EGF, Noggin, and DAPT (END), as well as small molecules. After 2-3 days of differentiation, the cells lysed and ChgA expression was measured by qRT-PCR.
Small molecules were further validated using a 24-well plate culture and the differentiation system. […] The expression of markers of secretory lineage cells including goblet cells (Muc2), enteroendocrine cells (ChgA), and Paneth cells (Lyz1) were measured.

| SMILES | stem cells turned into EECs [1] | concentration of highest activity / optimal concentration in promoting Insulin expression [2] | effect of removal [3] | Ngn3 expression [4] | expression of Goblet cell marker (Muc2) and Paneth cell marker (Lyz1) ([5]; 24-well validation, END conditions) | expression of enteroendocrine cell marker ChgA ([5]; multiple conditions (FIG. 6)) |
| --- | --- | --- | --- | --- | --- | --- |
| C[C@H](NC(=O)Cc1cc(F)cc(F)c1)C(=O)N[C@H](C(=O)OC(C)(C)C)c1ccccc1 [DAPT, N—[N-(3,5-Difluorophenacetyl)-L-alanyl]-S-phenylglycine t-butyl ester] | 5%-10% | 5 µM | could be removed without much influence |  |  |  |
| O=C(NOC[C@H](O)CO)c1ccc(F)c(F)c1Nc1ccc(I)cc1F [PD0325901, N-[(2R)-2,3-Dihydroxypropoxyl]-3,4-difluoro-2-[(2-fluoro-4-iodophenyl)amino]-benzamide] |  |  | could be removed without much influence | further decreased | not similarly increased | specifically increased |
